Here are results for one compound from ChEMBL document CHEMBL5143537, “Quinazoline-based hydroxamic acid derivatives as dual histone methylation and deacetylation inhibitors for potential anticancer agents” (Bioorg Med Chem, 2022).

Data set [1] concerns the target T1, Protein deacetylase HDAC6 (Homo sapiens, UniProt Q9UBN7).
T1 sequence (Q9UBN7 whole entry): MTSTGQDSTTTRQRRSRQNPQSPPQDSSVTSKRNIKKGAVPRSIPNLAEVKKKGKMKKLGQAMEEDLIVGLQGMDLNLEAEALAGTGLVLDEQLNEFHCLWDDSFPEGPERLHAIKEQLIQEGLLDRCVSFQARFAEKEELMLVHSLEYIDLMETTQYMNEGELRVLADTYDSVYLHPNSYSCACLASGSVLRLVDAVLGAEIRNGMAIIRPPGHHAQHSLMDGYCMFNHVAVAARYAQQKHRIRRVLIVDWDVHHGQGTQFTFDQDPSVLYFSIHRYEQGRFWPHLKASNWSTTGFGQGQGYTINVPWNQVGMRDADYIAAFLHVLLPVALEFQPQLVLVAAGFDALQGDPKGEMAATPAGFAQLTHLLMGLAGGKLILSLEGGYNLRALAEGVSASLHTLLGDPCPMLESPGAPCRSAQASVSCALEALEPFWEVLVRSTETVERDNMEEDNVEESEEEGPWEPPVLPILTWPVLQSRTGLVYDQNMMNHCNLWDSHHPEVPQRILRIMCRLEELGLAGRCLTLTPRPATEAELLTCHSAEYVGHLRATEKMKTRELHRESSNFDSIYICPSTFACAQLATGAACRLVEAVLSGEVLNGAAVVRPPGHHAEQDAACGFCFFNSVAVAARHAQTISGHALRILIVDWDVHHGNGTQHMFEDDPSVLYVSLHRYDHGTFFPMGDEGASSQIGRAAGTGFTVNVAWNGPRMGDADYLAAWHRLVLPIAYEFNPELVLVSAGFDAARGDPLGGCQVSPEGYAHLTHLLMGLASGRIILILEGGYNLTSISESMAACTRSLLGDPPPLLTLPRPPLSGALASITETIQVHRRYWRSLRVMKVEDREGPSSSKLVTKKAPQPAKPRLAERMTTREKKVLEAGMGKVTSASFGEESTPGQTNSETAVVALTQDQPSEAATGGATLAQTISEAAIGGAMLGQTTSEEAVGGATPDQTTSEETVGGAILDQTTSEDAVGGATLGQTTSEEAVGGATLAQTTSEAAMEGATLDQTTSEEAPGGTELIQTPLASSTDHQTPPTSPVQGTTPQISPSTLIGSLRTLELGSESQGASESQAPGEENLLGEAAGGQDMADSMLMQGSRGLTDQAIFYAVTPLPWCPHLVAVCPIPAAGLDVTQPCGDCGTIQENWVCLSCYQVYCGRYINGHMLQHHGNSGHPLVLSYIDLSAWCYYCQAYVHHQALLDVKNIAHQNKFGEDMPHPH
Briefly: Inhibition of recombinant HDAC6 (unknown origin) using Ac-peptide-AMC as substrate preincubated for 15 mins followed by substrate addition and measured after 60 mins by fluorescence assay.

The subject of the next data set is MDA-MB-231. Kind of data set: Antiproliferative activity against human MDA-MB-231 cells measured after 72 hrs by MTT assay. In kind it is functional, cell-based. Particulars: MDA-MB-231, 72 h. On the technique in general: Tetrazolium dyes change colour on reduction, which living cells bring about.
Data set [2] deals with HepG2. Briefly: Antiproliferative activity against human HepG2 cells measured after 72 hrs by MTT assay. Format: functional, cell-based. Particulars: HepG2, 72 h.
A short description of data set [3]: Cytotoxicity against human HL7702 cells measured after 72 hrs by MTT assay. Particulars: HL7702 (L02) cells.
Data set [4] deals with Histone deacetylase (Homo sapiens) (UniProt Q13547+O15379+Q9UBN7+Q92769+Q9UQL6+Q8WUI4+Q9BY41+Q96DB2+P56524+Q9UKV0+Q969S8). Kind of data set: Inhibition of HDAC in human HepG2 cells assessed as increase in Ac-H3K9 expression at 1.25 to 20 uM measured after 24 hrs by Western blot analysis. In kind it is cell-based. The conditions noted are these: dose 1.25-20 µM. (In western blotting, separated proteins are transferred to a membrane and probed.)

The subject of data set [5] is HepG2. Briefly: Induction of apoptosis in human HepG2 cells assessed as early apoptotic cells at 1.25 uM measured after 48 hrs by Annexin V-FITC/propidium iodide staining based flow cytometry (reference value: 6.87%). In kind it is functional.
Data set [6] relates to HepG2. Kind of data set: Induction of apoptosis in human HepG2 cells assessed as late apoptotic cells at 1.25 uM measured after 48 hrs by Annexin V-FITC/propidium iodide staining based flow cytometry (reference value: 4.55%). In kind it is functional. Background: A flow cytometer gives signals particle by particle.
The subject of data set [7] is HepG2. Briefly: Induction of apoptosis in human HepG2 cells assessed as early apoptotic cells at 2.5 uM measured after 48 hrs by Annexin V-FITC/propidium iodide staining based flow cytometry (reference value: 6.87%). In kind it is functional.
Data set [8] deals with HepG2. Kind of data set: Induction of apoptosis in human HepG2 cells assessed as late apoptotic cells at 2.5 uM measured after 48 hrs by Annexin V-FITC/propidium iodide staining based flow cytometry (reference value: 4.55%). In kind it is functional.
Data set [9] deals with HepG2. Briefly: Induction of apoptosis in human HepG2 cells assessed as late apoptotic cells at 5 uM measured after 48 hrs by Annexin V-FITC/propidium iodide staining based flow cytometry (reference value: 4.55%). Format: functional.
Data set [10] has as its system HepG2. Kind of data set: Induction of apoptosis in human HepG2 cells assessed as viable cells at 10 uM measured after 48 hrs by Annexin V-FITC/propidium iodide staining based flow cytometry (reference value: 88.58%). Format: functional. The conditions noted are these: read-out: Activity.
In data set [11] the test system is HepG2. Kind of data set: Induction of apoptosis in human HepG2 cells assessed as viable cells at 20 uM measured after 48 hrs by Annexin V-FITC/propidium iodide staining based flow cytometry (reference value: 88.58%). Particulars: read-out: Activity. In kind it is functional.
For data set [12], the system named is HepG2. Kind of data set: Induction of apoptosis in human HepG2 cells measured after 48 hrs by Annexin V-FITC/propidium iodide staining based flow cytometry. Format: functional, cell-based. Particulars: dose 1.25-25 µM, DDE = dose-dependent effect.
Data set [13] has as its system HepG2. Briefly: Cell cycle arrest in human HepG2 cells assessed as accumulation at G2/M phase at 2.5 uM measured after 48 hrs by propidium iodide staining based flow cytometry (reference value: 12.37%). Format: functional.
Data set [14] relates to HepG2. Kind of data set: Cell cycle arrest in human HepG2 cells assessed as accumulation at G0/G1 phase at 5 uM measured after 48 hrs by propidium iodide staining based flow cytometry (reference value: 55.24%). In kind it is functional.
Data set [15] deals with HepG2. Kind of data set: Cell cycle arrest in human HepG2 cells assessed as accumulation at G2/M phase at 5 uM measured after 48 hrs by propidium iodide staining based flow cytometry (reference value: 12.37%). Format: functional.
In data set [16] the test system is HepG2. Briefly: Cell cycle arrest in human HepG2 cells assessed as accumulation at G0/G1 phase at 10 uM measured after 48 hrs by propidium iodide staining based flow cytometry (reference value: 55.24%). In kind it is functional.
In data set [17] the test system is HepG2. Kind of data set: Cell cycle arrest in human HepG2 cells assessed as accumulation at S phase at 10 uM measured after 48 hrs by propidium iodide staining based flow cytometry (reference value: 32.39%). In kind it is functional.
The test system of data set [18] is HepG2. Kind of data set: Cell cycle arrest in human HepG2 cells assessed as increase in p21 expression measured after 24 hrs by Western blot analysis. In kind it is functional, cell-based. The conditions noted are these: dose 1.25-20 µM, DDE = dose-dependent effect.
The subject of data set [19] is HepG2. Kind of data set: Antimigratory activity against human HepG2 cells measured after 24 hrs by wound healing assay. The conditions noted are these: dose 1.5-5 µM, DDE = dose-dependent effect. In kind it is functional, cell-based.
Data set [20] concerns HepG2. Kind of data set: Antiinvasive activity against human HepG2 cells at 20 uM measured after 24 hrs by trans-well assay. Format: functional, cell-based. Particulars: DDE = dose-dependent effect.
In data set [21] the test system is HepG2. Kind of data set: Inhibition of colony formation in human HepG2 cells measured after 24 hrs. In kind it is functional, cell-based. The conditions noted are these: dose 1.25-20 µM, DDE = dose-dependent effect.
A short description of data set [22]: Half life in rat liver microsomes at 1 uM by LC-MS/MS analysis. In kind it is ADME, Microsome.

The source made the active and inactive calls. No cut-off for these calls is given here.

Consider `COc1cc2nc(N3CCN(CCCCCC(=O)NO)CC3)nc(NC3CCN(Cc4ccccc4)CC3)c2cc1OC`, for which the IC50 (as a rule, the concentration at which inhibition is half-maximal) in [1] was 0.013 µM; with MDA-MB-231, 9.3 µM; in the data set on HepG2 [2] it was 2.74 µM. Half-maximal inhibition in data set [3] (IC50 at 72 h) was put at 39.8 µM. For the same compound, the inhibition result in [4] is “Active”. For the same compound, the Activity with HepG2 [5] is 8.83%; with HepG2 [6], 2.68%; in the data set on HepG2 [7] it was 10.22%; in the data set on HepG2 [8], 2.27%; in the data set with HepG2 [9] it was 4.14%; in the data set on HepG2 [12], “Dde”. Besides, the Activity in the data set on HepG2 [13] was 13.29%; with HepG2 [14] it was 58.07%; with HepG2 [15], 13.12%; in the data set on HepG2 [16] it was 59.81%; in the data set on HepG2 [17] it was 24.67%; with HepG2 [18] it was “Dde”. Moreover, the Activity result with HepG2 [19] and in the data set on HepG2 [20] was “Dde” throughout. The viability at 10 µM with HepG2 [10] came to 77.8%. The viability at 20 µM with HepG2 [11] was found to be 33.1%. In addition, in the data set with HepG2 [21], the inhibition entry is “Dde”. For the same compound, the half-life (as a rule, the time in which the quantity being followed falls by half) at 1 µM in data set [22] was determined as 16 min.
